pIC50, pKi: −log10 of the molar value. Entries after “also recorded” stand apart in the source; their conditions may differ.
Columns and labels:
[1] = target: human NE transporter (hNET) (Homo sapiens, UniProt P23975); assay: NE transporter competitive binding assay, [3H]nisoxetine; details: Example 14; read-out: NET Ki
Protocol: (§1) Protocol. […] Bound radioactivity was determined by scintillation spectroscopy. Non-specific binding was defined as the amount of binding that occurred in the presence of 1.0 μM desipramine. The Ki values of the various test compounds were determined using standard methods.
as §1

[2] = target: T1, human serotonin transporter (hSERT) (Homo sapiens, UniProt P31645); assay: 5HT transporter competitive binding assay, [3H]imipramine; details: Example 14; read-out: SERT Ki
T1 construct: expressed in transfected cells; host or cells: CHO cells (membranes)
T1 sequence (P31645 whole entry): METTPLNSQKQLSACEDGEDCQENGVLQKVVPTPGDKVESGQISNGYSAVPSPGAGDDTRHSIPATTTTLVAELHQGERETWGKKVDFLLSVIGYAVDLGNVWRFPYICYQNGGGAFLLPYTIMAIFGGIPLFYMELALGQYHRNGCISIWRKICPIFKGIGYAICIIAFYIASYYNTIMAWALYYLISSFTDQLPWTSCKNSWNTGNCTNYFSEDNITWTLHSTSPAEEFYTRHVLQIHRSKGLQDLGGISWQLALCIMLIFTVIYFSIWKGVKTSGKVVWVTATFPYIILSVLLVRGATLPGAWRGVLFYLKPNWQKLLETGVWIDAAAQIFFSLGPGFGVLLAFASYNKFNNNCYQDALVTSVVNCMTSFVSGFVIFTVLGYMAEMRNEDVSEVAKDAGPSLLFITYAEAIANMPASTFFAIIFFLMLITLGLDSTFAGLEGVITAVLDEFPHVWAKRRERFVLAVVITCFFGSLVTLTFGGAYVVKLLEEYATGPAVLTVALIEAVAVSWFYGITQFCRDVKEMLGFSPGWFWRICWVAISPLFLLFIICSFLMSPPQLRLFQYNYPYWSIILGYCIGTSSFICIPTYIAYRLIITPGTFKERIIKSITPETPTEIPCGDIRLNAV
Protocol: (§2) Bound radioactivity was determined by scintillation spectroscopy. […] The Ki values of the various test compounds were determined using standard methods.
as §2

[3] = test system: L5 SNL rats, tactile allodynia; assay: L5-Single Nerve Ligation model of neuropathic pain (von Frey); format: in vivo, rat; details: 30 mg/kg, i.p.
Protocol: Protocol. […] The test animals were placed in a Plexiglas chamber (10 cm×20 cm×25 cm) and habituated for 15 minutes. The chamber was positioned on top of a mesh screen so that von Frey monofilaments could be presented to the plantar surface of both hindpaws. Measurement of tactile sensitivity for each hindpaw were obtained using the up/down method (Dixon, 1980) with seven Frey monofilaments (0.4, 1, 2, 4, 6, 8 and 15 grams). Each trial started with a von Frey force of 2 grams delivered to the right hindpaw for approximately 1-2 seconds and then the left hindpaw. If there was no withdrawal response, the next higher force was delivered. If there was a response, the next lower force was delivered. This procedure was performed until no response was made at the highest force (15 grams) or until four stimuli were administered following the initial response. Each test group contained 8 animals. The sham-operated control group, which were operated on but not subject to nerve ligation, contained 4 animals. All animals were tested at 60 minutes, and 240 minutes, post-administration of test compounds.
The 50% paw withdrawal threshold for each paw was calculated using the following formula: [Xth] log=[vFr] log+ky where [vFr] is the force of the last von Frey used, k=0.2249 which is the average interval (in log units) between the von Frey monofilaments, and y is a value that depends upon the pattern of withdrawal responses (Dixon, 1980). […] Testing for tactile sensitivity was performed twice and the mean 50% withdrawal value assigned as the tactile sensitivity for the right and left paws for each animal.
The E-10-OH-NT compounds were administered as either a maleate or succinate salt. AT was administered as a hydrochloride salt. Dosage amounts are based on the amount of free base. The test animals were placed in a Plexiglas chamber (10 cm×20 cm×25 cm) and habituated for 15 minutes. The chamber was positioned on top of a mesh screen so that von Frey monofilaments could be presented to the plantar surface of both hindpaws. Measurement of tactile sensitivity for each hindpaw were obtained using the up/down method (Dixon, 1980) with seven Frey monofilaments (0.4, 1, 2, 4, 6, 8 and 15 grams). Each trial started with a von Frey force of 2 grams delivered to the right hindpaw for approximately 1-2 seconds and then the left hindpaw. If there was no withdrawal response, the next higher force was delivered. If there was a response, the next lower force was delivered. This procedure was performed until no response was made at the highest force (15 grams) or until four stimuli were administered following the initial response. Each test group contained 8 animals. The sham-operated control group, which were operated on but not subject to nerve ligation, contained 4 animals. […]

[4] = target: T2, NE uptake, mouse atria (Mus musculus, UniProt O55192); details: Hyttel, 1980; cited from earlier work
T2 construct: host or cells: mouse atria
T2 sequence (O55192 whole entry): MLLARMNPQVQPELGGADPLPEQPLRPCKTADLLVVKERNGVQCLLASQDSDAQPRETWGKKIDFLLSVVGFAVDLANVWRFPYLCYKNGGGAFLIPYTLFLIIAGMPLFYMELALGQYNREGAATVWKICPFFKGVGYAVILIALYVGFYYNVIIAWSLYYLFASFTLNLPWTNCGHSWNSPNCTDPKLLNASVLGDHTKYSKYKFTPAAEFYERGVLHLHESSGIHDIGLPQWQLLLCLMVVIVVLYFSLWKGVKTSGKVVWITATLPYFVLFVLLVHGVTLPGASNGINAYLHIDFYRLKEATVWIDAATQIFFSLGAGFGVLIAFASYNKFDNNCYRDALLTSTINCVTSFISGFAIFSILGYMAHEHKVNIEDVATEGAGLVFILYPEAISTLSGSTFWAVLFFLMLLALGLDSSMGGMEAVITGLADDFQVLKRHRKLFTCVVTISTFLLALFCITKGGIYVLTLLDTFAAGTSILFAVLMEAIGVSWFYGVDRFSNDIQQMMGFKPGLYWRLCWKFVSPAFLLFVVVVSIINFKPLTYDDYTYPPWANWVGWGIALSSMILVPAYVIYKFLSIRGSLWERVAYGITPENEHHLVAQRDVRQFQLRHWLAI

[5] = Hygroscopicity of salt form; format: physicochemical; details: crystalline salt
[6] = test system: acetic acid-induced abdominal constriction; details: cited from earlier work
[7] = test system: pain intensity; details: study completers; Atkinson et al., 1999; cited from earlier work

Chain of human NE transporter (hNET) (P23975 whole entry): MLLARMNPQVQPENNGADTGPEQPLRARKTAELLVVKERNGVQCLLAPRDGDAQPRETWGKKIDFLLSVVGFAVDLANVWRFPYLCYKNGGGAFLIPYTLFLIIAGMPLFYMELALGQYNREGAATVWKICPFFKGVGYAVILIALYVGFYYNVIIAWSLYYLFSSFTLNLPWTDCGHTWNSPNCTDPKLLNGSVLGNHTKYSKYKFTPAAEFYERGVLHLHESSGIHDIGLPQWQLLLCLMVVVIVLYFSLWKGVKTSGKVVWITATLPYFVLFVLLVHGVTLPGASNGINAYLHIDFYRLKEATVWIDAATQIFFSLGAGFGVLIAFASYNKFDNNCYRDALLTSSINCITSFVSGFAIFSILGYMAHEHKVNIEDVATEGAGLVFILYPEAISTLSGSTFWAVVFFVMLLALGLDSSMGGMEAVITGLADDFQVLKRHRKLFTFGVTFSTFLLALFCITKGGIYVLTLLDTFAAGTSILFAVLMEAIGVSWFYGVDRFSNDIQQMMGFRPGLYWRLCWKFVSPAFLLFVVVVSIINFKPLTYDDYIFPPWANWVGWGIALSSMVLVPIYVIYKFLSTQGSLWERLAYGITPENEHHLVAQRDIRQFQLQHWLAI

CNCC/C=C1\c2ccccc2CC(O)c2ccccc21 (racemic) [(±)-E-10-OH-NT, (S/R)-5-[3-Methylamino-prop-(E)-ylidene]-10,11-dihydro-5H-dibenzo[a,d]cyclohepten-10-ol, reference compound]
pKi [1]: 7.29 | pKi [2]: 6.38 | antiallodynic activity [3]: comparable to that of the vehicle-only control | pIC50 [4]: 6.89

CNCC/C=C1\c2ccccc2CC(O)c2ccccc21.O=C(O)CCC(=O)O (single isomer, unassigned; (-)) [(−)-E-10-OH-NT Succinate]
hygroscopicity [5]: non-hydroscopic; also recorded: non-hygroscopic

COC1(C2=NCCN2)COc2ccccc2O1 (stereo not drawn) [RX821002, [2-(2-methoxy-1, -4-benzodioxan-2-yl)-2-imidazoline]]
inhibition of acetic acid-induced abdominal constriction ([6]; doses up to 3 mg/kg, subcutaneously, by itself): did not produce significant inhibition

Clc1cccc(Cl)c1N=C1NCCN1 [clonidine]
protection against acetic acid-induced abdominal constriction ([6]; highest dose level, 1.0 mg/kg (s.c.)): 100%

CNCCCC12CCC(c3ccccc31)c1ccccc12 [maprotiline]
reduction in pain intensity [7]: 45%

Fc1ccc([C@@H]2CCNC[C@H]2COc2ccc3c(c2)OCO3)cc1 [paroxetine]
reduction in pain intensity [7]: 26%

From patent US20120178815A1, “Compositions of (-)-E-10-OH-NT and Methods for Their Synthesis and Use” (Adolor Corporation, priority 2007, published 2012)
